From patent US20130272978A1, “DIHYDROXYACETONE MONOETHERS” (MERCK PATENT GMBH, priority 2010, published 2013)

How the values were obtained:
[1] = Tanning experiment (liquid skin model); conditions: for L* (Lab values after 24 hours) / a* (Lab values after 24 hours) / b* (Lab values after 24 hours): 1 mmol substance + 1 mmol DL-lysine in ethylene glycol/water, pH=7, after 24 h, UV-VIS spectrometer; for Coloration/shade compared with DHA: from Lab values after 24 h; for Kinetics of tanning reaction compared with DHA: documented via photos; for Speed of tanning reaction relative to DHA: optical assessment
Method: Tanning Experiment (Liquid Skin Model)
1 mmol of the self-tanner substance to be tested are dissolved in 94 ml of ethylene glycol and 6 ml of water (potassium hydrogenphthalate-buffered to pH=7) with 146 mg of DL-lysine (1 mmol) and stirred for 24 hrs. (=liquid skin model). The kinetics are documented via photos. After 24 h, the colour values (L*a*b* system) of the solution are measured by UV-VIS spectrometer (Varian Cary-50) in order to be able to assess the effect on the skin tones.

[2] = Solubility in cosmetic oils (Finsolv TN); type: physicochemical

Structure (SMILES) | L* (Lab values after 24 hours) [1] | a* (Lab values after 24 hours) [1] | b* (Lab values after 24 hours) [1] | Coloration/shade compared with DHA [1] | Solubility in cosmetic oil [2] | Kinetics of tanning reaction compared with DHA [1] | Speed of tanning reaction relative to DHA [1]
O=C(CO)COCC1CCCCC1 [MCHMDE, monocyclohexylmethyl-DHA ether] | 45.3 | 18.2 | 50.5 | strong shift towards a more yellow shade | 0.97% | – | –
CCCCCCCOCC(=O)CO [MHDE, 1-heptyloxy-3-hydroxypropan-2-one] | 0.1 | 0.4 | 0.2 | darker coloration | – | faster tanning reaction than DHA | doubling of the speed
CCCCC(CC)COCC(=O)CO (centres unmarked) [MEHDE, mono-2-ethylhexyl-DHA ether] | 86.5 | 4.7 | 24.3 | paler coloration | 2.25% | – | –
O=C(CO)COCc1ccccc1 [MBDE, 1-benzyloxy-3-hydroxypropan-2-one] | 42.6 | 32.0 | 70.0 | strong shift towards a redder shade | 0.24% | faster tanning reaction than DHA | doubling of the speed
